Experimental data from US9750747B2, “Treatments involving eslicarbazepine acetate or eslicarbazepine” (BAIL-PORTELA & CA, S.A., priority 2011, dated 2017).

Assays:
[1] = tested on: primary generalised tonic clonic seizure (PGTCS); assay: randomised double-blind placebo controlled trial of adjunctive treatment in PGTCS; type: in vivo; settings: human patients, adjunct or monotherapy
Description: Clinical trial study: A randomised double-blind, placebo controlled, trial assesses the efficacy and safety of adjunctive eslicarbazepine acetate in primary generalised tonic clonic seizure (PGTCS) in human patients in accordance with established methods. Methods: Men and women are selected for trial according to standard inclusion criteria in the field including the following: • Subject is male or female and aged 6-65 years. • Subject has ≧3 PGTCS over the two months before screening and during the eight weeks Baseline Period with at least one seizure in each one month period. […] Trial endpoints assessed clinical criteria are as follows: • time to withdrawal after randomisation; • time to first, second, or other seizure after randomisation (time to first seizure after randomisation allows determination of the proportion of patients at different time points who remain seizure free); • time to achieving remission (e.g. at six months, one year, or two years); • change in seizure severity; • change in seizure frequency; • percentage response to treatment (response defined as a 50% or greater reduction in seizure frequency); • change in seizure-free interval; • change in seizure duration; • change in seizure pattern; • change in functional capacity; and • patient-related quality of life.

[2] = tested on: absence seizure; assay: mouse absence seizure models (γ-butyrolactone induced, SSADH null, stargazer, C3H/He); type: in vivo; settings: mice models (a)-(d)

**Q.** How did the “clinical effects in patients suffering from or susceptible to PGTCS” value [1] turn out when `CC(=O)O[C@H]1Cc2ccccc2N(C(N)=O)c2ccccc21` [eslicarbazepine acetate, (S)-10-acetoxy-10,11-dihydro-5H-dibenz[b,f]azepine-5-carboxamide] was run?
**A.** The value was “improved clinical effects”.

**Q.** What about the “controlling seizures in mouse absence seizure models” value [2] of the same compound?
**A.** Its value is “effective in controlling seizures”.
